From patent publication US6737383B1, “Herbicidal oxadiazolidines” (priority 1999, dated 2004)

How the values were obtained:
bedstraw = assay: Test B pre/postemergence bedstraw; format: in vivo, Galium aparine; conditions: for Bedstraw plant response rating: 10 is complete control
Procedure, shortened: (§1)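 Response is a visual 0-to-10 score relative to untreated plants, where 0 means no effect and 10 means complete control, taken twelve to sixteen days after application. Treatments went onto soil at planting and onto foliage of 1- to 4-leaf plants, using a surfactant-containing non-phytotoxic solvent.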

blackgrass = assay: Test B pre/postemergence blackgrass; format: in vivo, Alopecurus myosuroides
Procedure, shortened: as §1

surinam grass = assay: Test B pre/postemergence surinam grass; format: in vivo, Brachiaria decumbens
Procedure, shortened: as §1

cocklebur = assay: Test B pre/postemergence cocklebur; format: in vivo, Xanthium strumarium
Procedure, shortened: as §1

corn = assay: Test B pre/postemergence corn; format: in vivo, Zea mays
Procedure, shortened: as §1

crabgrass = assay: Test B pre/postemergence crabgrass; format: in vivo, Digitaria sanguinalis
Procedure, shortened: as §1

giant foxtail = assay: Test B pre/postemergence giant foxtail; format: in vivo, Setaria faberii
Procedure, shortened: as §1

morningglory = assay: Test B pre/postemergence morningglory; format: in vivo, Ipomoea hederacea
Procedure, shortened: as §1

pigweed = assay: Test B pre/postemergence pigweed; format: in vivo, Amaranthus retroflexus
Procedure, shortened: as §1

rape = assay: Test B pre/postemergence rape; format: in vivo, Brassica napus
Procedure, shortened: as §1

soybean = assay: Test B pre/postemergence soybean; format: in vivo, Glycine max
Procedure, shortened: as §1

sugar beet = assay: Test B pre/postemergence sugar beet; format: in vivo, Beta vulgaris
Procedure, shortened: as §1

velvetleaf = assay: Test B pre/postemergence velvetleaf; format: in vivo, Abutilon theophrasti
Procedure, shortened: as §1

wheat = assay: Test B pre/postemergence wheat; format: in vivo, Triticum aestivum
Procedure, shortened: as §1

wild oat = assay: Test B pre/postemergence wild oat; format: in vivo, Avena fatua
Procedure, shortened: as §1

purple nutsedge = assay: Test B pre/postemergence purple nutsedge; format: in vivo, Cyperus rotundus
Procedure, shortened: as §1

[1] = Preemergence, Rate 62 g/ha, scale of 0 to 10 where 0 is no effect and 10 is complete control
[2] = Postemergence, Rate 62 g/ha, scale of 0 to 10, 0 is no effect, 10 is complete control
[3] = Postemergence, Rate 125 g/ha, scale 0 to 10, 0 is no effect, 10 is complete control
[4] = Postemergence, Rate 250 g/ha, scale 0 to 10
[5] = Postemergence, Rate 500 g/ha, scale 0 to 10, 0 is no effect, 10 is complete control
[6] = Preemergence, Rate 125 g/ha, scale 0 to 10, 0 is no effect, 10 is complete control
[7] = Preemergence, Rate 250 g/ha, scale 0 to 10, 0 is no effect, 10 is complete control
[8] = Preemergence, Rate 500 g/ha, scale of 0 to 10 where 0 is no effect and 10 is complete control

In the case of `COC(=O)CCCn1c(=O)on(C(=O)N(c2ccc(F)cc2F)C(C)C)c1=O` [Compound 513], the “Bedstraw plant response rating” value (bedstraw; Postemergence, Rate 62 g/ha, scale of 0 to 10, 0 is no effect) is reported as 6, the “Plant response rating, Bedstraw” value (bedstraw; [1]) is reported as 0 and the “Bedstraw plant response rating” value (bedstraw; Preemergence, Rate 250 g/ha, scale 0 to 10, 0 is no effect) is reported as 0. The “Bedstraw plant response rating” value (bedstraw; Preemergence, Rate 500 g/ha, scale 0 to 10, 0 is no effect) was 4, the “Blackgrass plant response rating” value (blackgrass; [2]) was 4 and the “Blackgrass plant response rating” value (blackgrass; [3]) was 4. For the same compound, the “Blackgrass plant response rating” value (blackgrass; [4]) was 8, the “Plant response rating, Blackgrass” value (blackgrass; [5]) was 8 and the “Plant response rating, Blackgrass” value (blackgrass; [1]) was 1. For the same compound, the “Blackgrass plant response rating” value (blackgrass; [6]) was 4, the “Blackgrass plant response rating” value (blackgrass; [7]) was 4 and the “Blackgrass plant response rating” value (blackgrass; [8]) was 10. The “B. signalgrass plant response rating” value (surinam grass; [2]) was 0, the “B. signalgrass plant response rating” value (surinam grass; [3]) was 3 and the “B. signalgrass plant response rating” value (surinam grass; Postemergence, Rate 250 g/ha, scale 0 to 10, 0 no effect, 10 complete control) was 6. The “Plant response rating, B. signalgrass” value (surinam grass; [5]) was 8, the “Plant response rating, B. signalgrass” value (surinam grass; [1]) was 0 and the “B. signalgrass plant response rating” value (surinam grass; [6]) was 0. The “B. signalgrass plant response rating” value (surinam grass; [7]) was 5, the “B. signalgrass plant response rating” value (surinam grass; Preemergence, Rate 500 g/ha, scale 0 to 10, 0 is no effect, 10 is complete control) was 9 and the “Cocklebur plant response rating” value (cocklebur; [2]) was 3. For the same compound, the “Cocklebur plant response rating” value (cocklebur; [3]) was 3, the “Cocklebur plant response rating” value (cocklebur; [4]) was 6 and the “Plant response rating, Cocklebur” value (cocklebur; [5]) was 7. For the same compound, the “Plant response rating, Cocklebur” value (cocklebur; [1]) was 0, the “Cocklebur plant response rating” value (cocklebur; [6]) was 0 and the “Cocklebur plant response rating” value (cocklebur; [7]) was 0. The “Cocklebur plant response rating” value (cocklebur; [8]) was 0, the “Corn plant response rating” value (corn; [2]) was 0 and the “Corn plant response rating” value (corn; [3]) was 0. The “Corn plant response rating” value (corn; [4]) was 0, the “Plant response rating, Corn” value (corn; [5]) was 3 and the “Plant response rating, Corn” value (corn; [1]) was 0. The “Corn plant response rating” value (corn; [6]) was 0, the “Corn plant response rating” value (corn; [8]) was 4 and the “Crabgrass plant response rating” value (crabgrass; [2]) was 1. The “Crabgrass plant response rating” value (crabgrass; [3]) was 4, the “Crabgrass plant response rating” value (crabgrass; [4]) was 6 and the “Plant response rating, Crabgrass” value (crabgrass; [5]) was 9. For the same compound, the “Plant response rating, Crabgrass” value (crabgrass; [1]) was 4, the “Crabgrass plant response rating” value (crabgrass; [6]) was 4 and the “Crabgrass plant response rating” value (crabgrass; [8]) was 5. The “Giant foxtail plant response rating” value (giant foxtail; [2]) was 1, the “Giant foxtail plant response rating” value (giant foxtail; [3]) was 5 and the “Plant response rating, Giant foxtail” value (giant foxtail; [5]) was 8. The “Plant response rating, Giant foxtail” value (giant foxtail; [1]) was 2, the “Giant foxtail plant response rating” value (giant foxtail; [6]) was 6 and the “Giant foxtail plant response rating” value (giant foxtail; [8]) was 10. For the same compound, the “Morningglory plant response rating” value (morningglory; [2]) was 3, the “Morningglory plant response rating” value (morningglory; [3]) was 3 and the “Plant response rating, Morningglory” value (morningglory; [5]) was 9. For the same compound, the “Plant response rating, Morningglory” value (morningglory; [1]) was 0, the “Morningglory plant response rating” value (morningglory; [6]) was 0 and the “Morningglory plant response rating” value (morningglory; [8]) was 3. The “Redroot pigweed plant response rating” value (pigweed; [2]) was 3, the “Redroot pigweed plant response rating” value (pigweed; [3]) was 6 and the “Plant response rating, Redroot pigweed” value (pigweed; [5]) was 7. For the same compound, the “Plant response rating, Redroot pigweed” value (pigweed; [1]) was 7, the “Redroot pigweed plant response rating” value (pigweed; [6]) was 7 and the “Redroot pigweed plant response rating” value (pigweed; [8]) was 10. The “Rape plant response rating” value (rape; [2]) was 0, the “Rape plant response rating” value (rape; [3]) was 4 and the “Plant response rating, Rape” value (rape; [5]) was 7. For the same compound, the “Plant response rating, Rape” value (rape; [1]) was 0, the “Rape plant response rating” value (rape; [6]) was 2 and the “Rape plant response rating” value (rape; [8]) was 7. The “Soybean plant response rating” value (soybean; [2]) was 1, the “Soybean plant response rating” value (soybean; [3]) was 7 and the “Plant response rating, Soybean” value (soybean; [5]) was 8. The “Plant response rating, Soybean” value (soybean; [1]) was 0, the “Soybean plant response rating” value (soybean; [6]) was 0 and the “Soybean plant response rating” value (soybean; [8]) was 5. For the same compound, the “Sugarbeets plant response rating” value (sugar beet; [2]) was 2, the “Sugarbeets plant response rating” value (sugar beet; [3]) was 4 and the “Plant response rating, Sugarbeets” value (sugar beet; [5]) was 7. The “Plant response rating, Sugarbeets” value (sugar beet; [1]) was 0, the “Sugarbeets plant response rating” value (sugar beet; [6]) was 0 and the “Sugarbeets plant response rating” value (sugar beet; [8]) was 0. For the same compound, the “Velvetleaf plant response rating” value (velvetleaf; [2]) was 3, the “Velvetleaf plant response rating” value (velvetleaf; [3]) was 3 and the “Plant response rating, Velvetleaf” value (velvetleaf; [5]) was 7. The “Plant response rating, Velvetleaf” value (velvetleaf; [1]) was 0, the “Velvetleaf plant response rating” value (velvetleaf; [6]) was 0 and the “Velvetleaf plant response rating” value (velvetleaf; [8]) was 0. The “Wheat plant response rating” value (wheat; [2]) was 3, the “Wheat plant response rating” value (wheat; [3]) was 5 and the “Plant response rating, Wheat” value (wheat; [5]) was 6. For the same compound, the “Plant response rating, Wheat” value (wheat; [1]) was 0, the “Wheat plant response rating” value (wheat; [6]) was 2 and the “Wheat plant response rating” value (wheat; [8]) was 7. The “Wild oats plant response rating” value (wild oat; [2]) was 0, the “Wild oats plant response rating” value (wild oat; [3]) was 4 and the “Plant response rating, Wild oats” value (wild oat; [5]) was 6. The “Plant response rating, Wild oats” value (wild oat; [1]) was 3, the “Wild oats plant response rating” value (wild oat; [6]) was 3 and the “Wild oats plant response rating” value (wild oat; [8]) was 10. The “Nutsedge plant response rating” value (purple nutsedge; [2]) was 0, the “Nutsedge plant response rating” value (purple nutsedge; [3]) was 0 and the “Plant response rating, Nutsedge” value (purple nutsedge; [5]) was 5. For the same compound, the “Plant response rating, Nutsedge” value (purple nutsedge; [1]) was 0, the “Nutsedge plant response rating” value (purple nutsedge; [6]) was 0 and the “Nutsedge plant response rating” value (purple nutsedge; [8]) was 0.
